Assay results: patent US8802664B2 (Bioproject, priority 2010, dated 2014)

Columns and labels:
human H4 receptor = molecular target: T1, human H4 receptor (Homo sapiens, UniProt Q9H3N8); test: [3H]Histamine binding on membranes of CHO cells stably expressing human H4 receptor
T1 construct: expressed in transfected cells
Outline: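 First, thawed CHO membranes carrying human H4 were diluted to 20 μg protein per well in pH 7.4 Tris/EDTA buffer. Next, incubation was ended by rapid filtration through PEI-treated GF/B filters followed by cold rinses. Finally, retained radioactivity was counted; 10 μM JNJ 7777120 marked nonspecific binding.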

T1 sequence (Q9H3N8 whole entry): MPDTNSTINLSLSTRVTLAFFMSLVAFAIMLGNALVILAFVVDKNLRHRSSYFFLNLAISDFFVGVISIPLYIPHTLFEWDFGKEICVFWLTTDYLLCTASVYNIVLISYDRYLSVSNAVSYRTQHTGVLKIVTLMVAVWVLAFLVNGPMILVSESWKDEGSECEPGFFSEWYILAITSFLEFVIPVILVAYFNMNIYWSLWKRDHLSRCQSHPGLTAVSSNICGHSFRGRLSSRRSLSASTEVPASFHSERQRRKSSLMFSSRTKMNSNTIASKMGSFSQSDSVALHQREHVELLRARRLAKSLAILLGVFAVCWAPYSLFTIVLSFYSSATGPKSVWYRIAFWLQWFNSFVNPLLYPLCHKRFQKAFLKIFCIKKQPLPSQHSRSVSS

SMILES	Ki or IC50 activity class (human H4 receptor) [µM]	melting point [°C]
CN1CCC(NC(c2cccnc2)c2nc3ccccc3s2)CC1 (centres unmarked) [Example 52, (benzothiazol-2-ylpyridin-3-ylmethyl)(1-methylpiperidin-4-yl)amine]	< 1	109
COc1cc(F)c(O)c(C(OC2CCN(C)CC2)c2nc3ccccc3[nH]2)c1 (centres unmarked) [Example 608]	< 0.3	132
CN1CCC(OC(c2nc3ccccc3[nH]2)c2cccc3cc[nH]c23)CC1 (centres unmarked) [Example 577]	< 0.3	110
CN1CCC(NC(c2cccc(OCCCCN)c2)c2nc3ccccc3[nH]2)CC1 (centres unmarked) [Example 367, [[3-(4-aminobutoxy)phenyl](1H-benzimidazol-2-yl)methyl](1-methylpiperidin-4-yl)amine]	< 0.3	68
Cc1ccc(C(OC2CCN(C)CC2)c2nc3ccccc3[nH]2)c(O)c1F (centres unmarked) [Example 601, 6-[(1H-benzimidazol-2-yl)(1-methylpiperidin-4-yloxy)methyl]-2-fluoro-3-methylphenol]	< 0.03	148
Cc1ccc(COc2cccc(C(NC3CCN(C)CC3)c3nc4ccccc4[nH]3)c2)cc1 (centres unmarked) [Example 130, {(1H-benzimidazol-2-yl)[3-(4-methylbenzyloxy)phenyl]methyl}(1-methylpiperidin-4-yl)amine]	< 0.3	87
CN1CCC(OC(c2cccc(SCCNC(N)=O)c2)c2nc3ccccc3[nH]2)CC1 (centres unmarked) [Example 298, (2-{3-[(1H-benzimidazol-2-yl)(1-methylpiperidin-4-yloxy)methyl]phenylsulfanyl}ethyl)urea]	< 1	136
CN1CCC(OC(c2cccc(SCCNC(=N)N)c2)c2nc3cc(F)ccc3[nH]2)CC1 (centres unmarked) [Example 437, N-(2-{3-[(5-fluoro-1H-benzimidazol-2-yl)(1-methylpiperidin-4-yloxy)methyl]phenylsulfanyl}ethyl)guanidine]	< 0.03	170
CN1CCC(NC(c2cccc(O)c2)c2nc3ccccc3[nH]2)CC1 (centres unmarked) [Example 126, 3-[(1H-benzimidazol-2-yl)(1-methylpiperidin-4-ylamino)methyl]phenol]	< 0.3	230
CCCOc1cccc(C(NC2CCN(C)CC2)c2nc3ccccc3s2)c1 (centres unmarked) [Example 42, [benzothiazol-2-yl(3-propoxyphenyl)methyl](1-methylpiperidin-4-yl)amine]	< 0.03	90
CN1CCC(OC(c2cccc(SCCNc3c(N)c(=O)c3=O)c2)c2nc3ccccc3[nH]2)CC1 (centres unmarked) [Example 385, 3-amino-4-(2-{3-[(1H-benzimidazol-2-yl)(1-methylpiperidin-4-yloxy)methyl]phenylsulfanyl}ethylamino)-cyclobut-3-ene-1,2-dione]	< 0.3	161
Cc1c(F)ccc(C(OC2CCN(C)CC2)c2nc3ccccc3[nH]2)c1O (centres unmarked) [Example 623]	< 0.03	97
CN1CCC(NC(c2cccc(-c3ccco3)c2)c2nc3ccccc3[nH]2)CC1 (centres unmarked) [Example 144, [(1H-benzimidazol-2-yl)(3-furan-2-ylphenyl)methyl](1-methylpiperidin-4-yl)amine]	< 0.03	108
C=Cc1cccc(C(OC2CCN(C)CC2)c2nc3ccccc3s2)c1 (centres unmarked) [Example 218, 2-[(1-methylpiperidin-4-yloxy)(3-vinyl-phenyl)methyl]benzothiazole]	< 0.03	165
CN1CCC(OC(c2nc3ccccc3[nH]2)c2cccc(-c3ccccc3)c2O)CC1 (centres unmarked) [Example 615]	< 0.3	129
CSc1ccc(O)c(C(OC2CCN(C)CC2)c2nc3ccccc3[nH]2)c1 (centres unmarked) [Example 587]	< 0.03	138
CN1CCC(OC(c2cccc(OCCCN)c2)c2nc3ccccc3[nH]2)CC1 (centres unmarked) [Example 327, 3-{3-[(1H-benzimidazol-2-yl)(1-methylpiperidin-4-yloxy)methyl]phenoxy}propylamine]	< 0.3	97
CN1CCC(NC(c2cccc(OCCCCN)c2)c2nc3ccccc3s2)CC1 (centres unmarked) [Example 387, {[3-(4-aminobutoxy)phenyl]benzothiazol-2-yl-methyl}(1-methylpiperidin-4-yl)amine]	< 0.03	67
CN1CCC(NC(c2cccc(N=[N+]=[N-])c2)c2nc3ccccc3[nH]2)CC1 (centres unmarked) [Example 132, [(3-azidophenyl)(1H-benzimidazol-2-yl)methyl](1-methylpiperidin-4-yl)amine]	< 0.3	202
CN1CCC(OC(c2cccc(-c3cncnc3)c2)c2nc3ccccc3s2)CC1 (centres unmarked) [Example 216, 2-[(1-methylpiperidin-4-yloxy)(3-pyrimidin-5-yl-phenyl)methyl]benzothiazole]	< 0.3	85

SMILES	Ki or IC50 activity class (human H4 receptor) [µM]	melting point [°C]
CN1CCC(OC(c2nc3ccccc3[nH]2)c2cc(-c3ccccc3)ccc2O)CC1 (centres unmarked) [Example 589]	< 1	140
CN1CCC(OC(c2nc3ccccc3[nH]2)c2cc(Cl)ccc2O)CC1 (centres unmarked) [Example 569]	< 0.03	185
CN1CCC(OC(c2cccc(-c3ccn[nH]3)c2)c2nc3ccccc3s2)CC1 (centres unmarked) [Example 260, 2-{(1-methylpiperidin-4-yloxy)[3-(2H-pyrazol-3-yl)phenyl]methyl}benzothiazole]	< 0.03	90
CN1CCC(OC(c2cccc(-c3ccccc3CO)c2)c2nc3ccccc3[nH]2)CC1 (centres unmarked) [Example 123, {3′-[(1H-benzimidazol-2-yl)(1-methylpiperidin-4-yloxy)methyl]biphenyl-2-yl}methanol]	< 1	107
CN1CCC(NC(c2cccc(OCC3CCCCC3)c2)c2nc3ccccc3[nH]2)CC1 (centres unmarked) [Example 73, [(1H-benzimidazol-2-yl)(3-cyclohexylmethoxyphenyl)methyl](1-methylpiperidin-4-yl)amine]	< 0.3	88
CN1CCC(OC(c2nc3ccccc3[nH]2)c2cc(C(F)(F)F)ccc2O)CC1 (centres unmarked) [Example 598]	< 0.3	135
CN1CCC(OC(c2ccc(Br)cc2)c2nc3ccccc3[nH]2)CC1 (centres unmarked) [Example 204, 2-[(4-bromophenyl)(1-methylpiperidin-4-yloxy)methyl]-1H-benzimidazole]	< 0.3	122
CN1CCC(OC(c2nc3ccccc3[nH]2)c2ccccc2OC(F)(F)F)CC1 (centres unmarked) [Example 251, 2-[(1-methylpiperidin-4-yloxy)(2-trifluoromethoxy-phenyl)methyl]-1H-benzimidazole]	< 1	193
CN1CCC(OC(c2cccc(-c3ccc4c(c3)OCO4)c2)c2nc3ccccc3[nH]2)CC1 (centres unmarked) [Example 184, 2-[(3-benzo[1,3]dioxol-5-ylphenyl)(1-methylpiperidin-4-yloxy)methyl]-1H-benzimidazole]	< 0.3	95
CN1CCC(OC(c2cccc(SCCNC(=N)NC#N)c2)c2nc3ccccc3[nH]2)CC1 (centres unmarked) [Example 318, N-(2-{3-[(1H-benzimidazol-2-yl)(1-methylpiperidin-4-yloxy)methyl]phenylsulfanyl}ethyl)-N′-cyanoguanidine]	< 0.03	65
CN1CCC(OC(c2nc3ccccc3[nH]2)c2cc(C(C)(C)C)ccc2O)CC1 (centres unmarked) [Example 590]	< 1	139
CCCc1ccc(O)c(C(OC2CCN(C)CC2)c2nc3ccccc3[nH]2)c1 (centres unmarked) [Example 591]	< 0.3	120
CN1CCC(OC(c2cccc(C#CCCO)c2)c2nc3ccccc3[nH]2)CC1 (centres unmarked) [Example 191, 4-{3-[(1H-benzimidazol-2-yl)(1-methylpiperidin-4-yloxy)methyl]phenyl}but-3-yn-1-ol]	< 0.3	104 to 108
CN1CCC(OC(c2nc3ccccc3[nH]2)c2ccc(C(F)(F)F)cc2F)CC1 (centres unmarked) [Example 540]	< 0.3	91
Cc1cc(F)cc(O)c1C(OC1CCN(C)CC1)c1nc2ccccc2[nH]1 (centres unmarked) [Example 600]	< 0.03	146
CN1CCC(OC(c2ccccc2)c2nc3cc(Br)ccc3[nH]2)CC1 (centres unmarked) [Example 170, 5-bromo-2-[(1-methylpiperidin-4-yloxy)phenylmethyl]-1H-benzimidazole]	< 0.3	143
CN1CCC(OC(c2cccc(C#CC3CNC3)c2)c2nc3ccccc3[nH]2)CC1 (centres unmarked) [Example 388, 2-[(3-azetidin-3-ylethynylphenyl)(1-methylpiperidin-4-yloxy)methyl]-1H-benzimidazole]	< 1	131
CN1CCC(OC(c2cccc(OCCCCN3CCN(C(=O)OC(C)(C)C)CC3)c2)c2nc3ccccc3[nH]2)CC1 (centres unmarked) [Example 343, 4-(4-{3-[(1H-benzimidazol-2-yl)(1-methylpiperidin-4-yloxy)methyl]phenoxy}butyl)piperazine-1-carboxylic acid tert-butyl ester]	< 0.3	64
CN1CCC(OC(c2ccccc2)c2nc3cc(F)ccc3[nH]2)CC1 (centres unmarked) [Example 166, 5-fluoro-2-[(1-methylpiperidin-4-yloxy)phenylmethyl]-1H-benzimidazole]	< 0.03	134
CN1CCC(OC(c2nc3ccccc3[nH]2)c2cccc(SCCN)c2F)CC1 (centres unmarked) [Example 352, 2-{3-[(1H-benzimidazol-2-yl)(1-methylpiperidin-4-yloxy)methyl]-2-fluorophenylsulfanyl}ethylamine]	< 0.3	204
